Data as given in US4492650A, “A54556 Antibiotics and process for production thereof” (Eli Lilly and Company, priority 1982, dated 1985).
Converted amounts (≈) assume the structure as drawn. Read-outs that look alike come from different tables or passages of the source. Bridge positions count the residues as written; N and C are the ends. Square brackets hold non-standard residues; d marks the D form. Peptide text beside a SMILES is read from it. * marks the point of attachment. ξ: configuration not given here. ξPro(4ξ-Me) = CC1CNC(C(=O)O)C1; NMeA = CN[CH](C)C(=O)O; X1 = O=C(/C=C/C=C/CO)*

Legend:
Culture A54556 = experiment: Sensitivity of Culture A54556 to antibiotics, sensitivity discs on ISP medium No. 2 agar; assay type: cell-based, Streptomyces hawaiiensis NRRL 15010; note: key: +: sensitive, zones of inhibition; -: resistant, no zones of inhibition
Procedure: The sensitivity of Culture A54556 to several antibiotics at specific concentrations was determined with sensitivity discs padded onto the surface of plates containing ISP medium No. 2 agar seeded with 2% inoculum of Culture A54556.

[1] = system: Staphylococcus aureus 3055; settings: second test, Table 13, benzylpenicillin-susceptible
[2] = system: Fusobacterium symbiosum 1470; experiment: MIC, agar-dilution method; assay type: cell-based
[3] = system: Clostridium perfringens 81; experiment: microbe, parasite or virus in culture; assay type: cell-based
[4] = system: Bacteroides corrodens 1874; experiment: MIC, agar-dilution method; assay type: cell-based; settings: Eikenella corrodens
anaerobic bacteria = experiment: Activity against anaerobic bacteria; assay type: cell-based; settings: agar-dilution method
S. pyogenes = experiment: In vivo protection against experimental bacterial infection in mice; settings: Streptococcus pyogenes, sc, two doses subcutaneously
Procedure: (§1) When two doses of test compound were administered subcutaneously to mice in illustrative infections, the activity is measured as an ED50 value [effective does in mg./kg. to protect fifty percent of the test animals: See Warren Wick et al., J. Bacteriol. 81, 233-235 (1961)]. The ED50 values for these antibiotic A54556 factors are recorded in Table 15, which follows.

[5] = system: Peptostreptococcus anaerobius 1428; experiment: MIC, agar-dilution method; assay type: cell-based
Electrometric titration = assay type: physicochemical; settings: 66 percent dimethylformamide in water
Text: Antibiotic A54556 factor A is a tan, amorphous solid. […] As determined by electron impact and field desorption mass spectrometry, A54556 factor A has a molecular weight of 718.

[6] = system: Streptococcus pneumoniae Park I; settings: second test, Table 13
[7] = system: experimental bacterial infections; experiment: In vivo antimicrobial activity against experimental bacterial infections; settings: mice, subcutaneously
Procedure: as §1

Peptococcus prevoti 1281 = experiment: MIC, agar-dilution method; assay type: cell-based
[8] = system: Staphylococcus epidermidis EPI1; settings: second test, Table 13
[9] = system: Streptococcus pyogenes (Group A) C203; settings: second test, Table 13
[10] = system: Streptococcus sp. (Group D) X66; experiment: Disc-plate sensitivity; assay type: cell-based; settings: Streptococcus, second test, Table 13
[11] = system: Bacteroides vulgatis 1211; experiment: MIC, agar-dilution method; assay type: cell-based
[12] = system: Bacteroides melaninogenicus 1856/28; experiment: MIC, agar-dilution method; assay type: cell-based; settings: Prevotella intermedia
Text: (§2) Antibiotic A54556 factors A, B, C, D, E, F, G, and H have been tested and found to be active against a number of anaerobic bacteria, as recorded in Table 14, which follows, the MIC values having been determined by the agar-dilution method.

[13] = system: Bacteroides thetaiotaomicron 1438; experiment: MIC, agar-dilution method; assay type: cell-based
Text: as §2

[14] = system: Peptostreptococcus intermedius 1264; experiment: MIC, agar-dilution method; assay type: cell-based
Text: as §2

Bacteroides fragilis 111 = experiment: MIC, agar-dilution method; assay type: cell-based
Text: as §2

[15] = system: Bacteroides fragilis 1936B; experiment: MIC, agar-dilution method; assay type: cell-based
Text: as §2

[16] = system: Clostridium difficile 2994; experiment: MIC, agar-dilution method; assay type: cell-based; settings: Clostridioides difficile
Text: as §2

[17] = system: Bacteroides fragilis 1877; experiment: MIC, agar-dilution method; assay type: cell-based
Text: as §2

[18] = system: Eubacterium aerofaciens 1235; experiment: MIC, agar-dilution method; assay type: cell-based; settings: Collinsella aerofaciens
Text: as §2

[19] = system: Propionibacterium acnes 79; experiment: MIC, agar-dilution method; assay type: cell-based; settings: Cutibacterium acnes
Text: as §2

[20] = system: Bacteroides melaninogenicus 2736; experiment: MIC, agar-dilution method; assay type: cell-based
Text: as §2

[21] = system: Clostridium septicum 1128; experiment: MIC, agar-dilution method; assay type: cell-based
Text: as §2

[22] = system: Fusobacterium necrophorum 6054A; experiment: MIC, agar-dilution method; assay type: cell-based
Text: as §2

[23] = system: Peptococcus asaccharolyticus 1302; experiment: MIC, agar-dilution method; assay type: cell-based; settings: Peptoniphilus asaccharolyticus
[24] = system: Staphylococcus aureus V41; settings: second test, Table 13, benzylpenicillin resistant

## O=C(N[C@H](CO)[C@H](O)c1ccc([N+](=O)[O-])cc1)C(Cl)Cl [Chloromycetin (CAP), Chloromycetin]
Culture A54556; 30 mcg. disc
  Antibiotic Sensitivity of Culture A54556: trace

## CC(=O)OCC1=C(C(=O)O)N2C(=O)[C@@H](NC(=O)Cc3cccs3)[C@H]2SC1 [Cephalothin]
Culture A54556; 30 mcg. disc
  Antibiotic Sensitivity of Culture A54556: -

## CN[C@H](CC(C)C)C(=O)N[C@H]1C(=O)N[C@@H](CC(N)=O)C(=O)N[C@H]2C(=O)N[C@H]3C(=O)N[C@H](C(=O)N[C@H](C(=O)O)c4cc(O)cc(O)c4-c4cc3ccc4O)[C@H](O)c3ccc(c(Cl)c3)Oc3cc2cc(c3O[C@@H]2O[C@H](CO)[C@@H](O)[C@H](O)[C@H]2O[C@H]2C[C@](C)(N)[C@H](O)[C@H](C)O2)Oc2ccc(cc2Cl)[C@H]1O [Vancomycin]
Culture A54556; 30 mcg. disc
  Antibiotic Sensitivity of Culture A54556: +

## [H]/N=C(/N)N[C@H]1[C@H](O)[C@@H](O)[C@H](O[C@@H]2O[C@@H](C)[C@](O)(C=O)[C@H]2O[C@@H]2O[C@@H](CO)[C@H](O)[C@@H](O)[C@@H]2NC)[C@@H](N/C(N)=N\[H])[C@@H]1O [Streptomycin]
Culture A54556; 10 mcg. disc
  Antibiotic Sensitivity of Culture A54556: +

## CC1CC2C(=O)N(C)C(C)C(=O)NC(C)C(=O)N3CCCC3C(=O)OCC(NC(=O)C(Cc3ccccc3)NC(=O)/C=C/C=C/CO)C(=O)N2C1 (stereo not drawn) [Factor H] (X1-FS[ξPro(4ξ-Me)][NMeA]AP; ester 2-C; configuration not given here)
[1]; 30 mcg./disc
  Zone diameter: 8 mm.
[1]; 300 mcg./disc
  Zone diameter: 11 mm.
[2]
  MIC: > 128 µg/mL
[3]
  MIC: > 128 µg/mL
[4]
  MIC: > 128 µg/mL
Anaerobic bacteria
  activity against a number of anaerobic bacteria: active
S. pyogenes
  ED50: 9.9 mg/kg
[5]
  MIC: 128 µg/mL (≈ 181 µM)
Electrometric titration
  titratable groups: no titratable groups
[6]; 30 mcg./disc
  Zone diameter: 25 mm.
[6]; 300 mcg./disc
  Zone diameter: 36 mm.
[7]
  in vivo antimicrobial activity against experimental bacterial infections: have shown in vivo antimicrobial activity
Peptococcus prevoti 1281
  MIC: > 128 µg/mL
[8]; 30 mcg./disc
  Zone diameter: 12 mm.
[8]; 300 mcg./disc
  Zone diameter: 24 mm.
[9]; 30 mcg./disc
  Zone diameter: 30 mm.
[9]; 300 mcg./disc
  Zone diameter: 32 mm.
[10]; read-out: Zone diameter, 30 mcg./disc
  zone of inhibition at 30 µg/disc: 21 mm
[10]; read-out: Zone diameter, 300 mcg./disc
  zone of inhibition at 300 µg/disc: 27 mm
[11]
  MIC: > 128 µg/mL
[12]
  MIC: > 128 µg/mL
[13]
  MIC: > 128 µg/mL
[14]
  MIC: > 128 µg/mL
Bacteroides fragilis 111
  MIC: > 128 µg/mL
[15]
  MIC: > 128 µg/mL
[16]
  MIC: > 128 µg/mL
[17]
  MIC: > 128 µg/mL
[18]
  MIC: > 128 µg/mL
[19]
  MIC: > 128 µg/mL
[20]
  MIC: > 128 µg/mL
[21]
  MIC: > 128 µg/mL
[22]
  MIC: > 128 µg/mL
[23]
  MIC: > 128 µg/mL
[24]; 30 mcg./disc
  Zone diameter: 10 mm.
[24]; 300 mcg./disc
  Zone diameter: 14 mm.
